Data as given in patent US20090209571A1, “Phenanthrene derivatives as MPGES-1 inhibitors” (priority 2006, published 2009).

Target: T1, human mPGES-1 (Homo sapiens, UniProt O14684)
T1 construct: expressed in transfected cells; host or cells: CHO-K1 cells, transiently transfected; microsomal fraction used
T1 sequence (O14684 1-152): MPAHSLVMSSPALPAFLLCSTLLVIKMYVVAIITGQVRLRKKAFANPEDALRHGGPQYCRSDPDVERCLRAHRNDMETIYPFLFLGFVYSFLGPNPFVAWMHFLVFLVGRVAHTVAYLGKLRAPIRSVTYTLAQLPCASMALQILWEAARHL
Assay: Microsomal Prostaglandin E Synthase Assay
Assay type: biochemical
Conditions: microsomal fractions from CHO-K1 cells transiently transfected with human mPGES-1 cDNA; 1 μM PGH2; PGE2 by EIA; average of at least n=3; read-out: h-CHO (nM), potency expressed as IC50
Description: Compounds are tested as inhibitors of prostaglandin E synthase activity in microsomal prostaglandin e synthases, whole cell and in vivo assays. These assays measure prostaglandin E2 (PGE2) synthesis using either Enzymatic Immunoassay (EIA) or mass spectrometry. Cells used for microsomal preparation are CHO-K1 cells transiently transfected with plasmids encoding the human mPGES-1 cDNA. Cells used for cell-based experiments are human A549 (which express human mPGES-1). Guinea pigs are used to test the activity of selected compounds in vivo. In all these assays, 100% activity is defined as the PGE2 production in vehicle-treated samples. IC50 and ED50 represent the concentration or dose of inhibitor required to inhibit PGE2 synthesis by 50% as compared to the uninhibited control.
Prostaglandin E synthase microsomal fractions are prepared from CHO-K1 cells transiently transfected with plasmid encoding the human mPGES-1 cDNA. Microsomes are then prepared and the PGES assay begins with the incubation of 5 μg/ml microsomal PGES-1 with compound or DMSO (final 1%) for 20-30 minutes at room temperature. The enzyme reactions are performed in 200 mM KPi pH 7.0, 2 mM EDTA and 2.5 mM GSH-reduced form. The enzymatic reaction is then initiated by the addition of 1 μM final PGH2 substrate prepared in isopropanol (3.5% final in assay well) and incubated at room temperature for 30 seconds. The reaction is terminated by the addition of SnCl2 in 1N HCl (1 mg/ml final). Measurement of PGE2 production in the enzyme reaction aliquots is done by EIA using a standard commercially available kit (Cat #: 901-001 from Assay Designs).
The potency is expressed as IC50 and the value indicated is an average of at least n=3.

IC50	SMILES
10.5 nM	Fc1cccc(Cl)c1-c1nc2c3ccccc3c3sc(Cl)cc3c2[nH]1 [Example 2]
3.2 nM	N#Cc1cccc(C#N)c1-c1nc2c3ccc(Cl)cc3c3ccoc3c2[nH]1 [Example 12]
1.8 nM	Fc1cccc(Cl)c1-c1nc2c3ccc(Cl)cc3c3cc(Br)sc3c2[nH]1 [Example 15]
1.5 nM	CC(C)(O)C#Cc1ccc2c(c1)c1c(Cl)c(Cl)sc1c1[nH]c(-c3c(C#N)cccc3C#N)nc21 [Example 28]
